Assay results taken from paper PMC7852560 (Neuropsychopharmacology, 2020).
pIC50: −log10 of the molar value. Read-outs that look alike come from different tables or passages of the source.

Legend:
CB1R = CB1R (Homo sapiens, UniProt P21554); assay: cell-based
CB2 = molecular target: T1, CB2 (Homo sapiens, UniProt P34972); assay: SafetyScreen44 panel: CB2; format: binding; details: 1 µM
T1 construct: Eurofins Cerep
Description: (§1) The screen assesses the selectivity of the compound on a diverse panel of targets that includes GPCRs, drug transporters, ion channels, nuclear receptors, kinases, and other non-kinase enzymes. The screen employs radioligand binding or enzyme assays for these 44 targets.
(§2) For receptor assays, binding was calculated as percent inhibition of the binding of a radioactively labeled ligand specific for each target. For enzyme assays, the inhibition effect was calculated as percent inhibition of control enzyme activity. Tests were performed in duplicate, and results are averages of those two tests. See https://www.eurofinsdiscoveryservices.com.

5HT1A = molecular target: T2, 5HT1A (Homo sapiens, UniProt P08908); assay: SafetyScreen44 panel: 5HT1A; format: binding; details: 1 µM
T2 construct: Eurofins Cerep
T2 sequence (P08908 1-422): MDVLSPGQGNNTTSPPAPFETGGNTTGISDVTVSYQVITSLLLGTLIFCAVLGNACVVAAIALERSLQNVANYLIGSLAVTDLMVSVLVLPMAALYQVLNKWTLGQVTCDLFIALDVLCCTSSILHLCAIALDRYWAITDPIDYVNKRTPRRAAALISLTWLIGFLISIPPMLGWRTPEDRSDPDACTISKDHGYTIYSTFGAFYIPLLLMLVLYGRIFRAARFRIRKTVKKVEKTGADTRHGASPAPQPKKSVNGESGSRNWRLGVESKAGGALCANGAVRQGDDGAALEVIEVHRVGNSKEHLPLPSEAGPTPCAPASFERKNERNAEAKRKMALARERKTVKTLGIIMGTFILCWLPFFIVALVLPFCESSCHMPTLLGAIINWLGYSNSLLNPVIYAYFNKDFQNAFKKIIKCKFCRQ
Description: as §1, §2

Male C57Bl/6J mice = assay: Cannabinoid-induced tetrad; format: in vivo; details: 10 mg/kg i.p., 30 min prior
Description: Male C57Bl/6J mice (PD > 70) were tested on the cannabinoid-induced tetrad, as previously described.
(i.p.) before testing. The tetrad was performed (1) catalepsy, (2) locomotion, (3) temperature, and (4) analgesia. Catalepsy: time (s) spent immobile with front paws on a plastic rod (1.5cm diameter), at a height of 4.5-cm from the table, before adjusting abnormal posture (either front paws being removed from the bar, or back paws climbing onto bar). Locomotion: horizontal activity (cm) was immediately measured in an open field test, following catalepsy, for 15-min. in 1-min bins. Temperature: rectal temperature (°C) was measured immediately following open-field testing, using a thermometer with rectal probe (Labcorp, Fisher, Waltham, MA). Analgesia: latency (s) to withdraw tail from hot water bath (52 °C), to assess tail-flick antinociception, was completed immediately following temperature readings.

Sequence of CB1R (P21554 whole entry): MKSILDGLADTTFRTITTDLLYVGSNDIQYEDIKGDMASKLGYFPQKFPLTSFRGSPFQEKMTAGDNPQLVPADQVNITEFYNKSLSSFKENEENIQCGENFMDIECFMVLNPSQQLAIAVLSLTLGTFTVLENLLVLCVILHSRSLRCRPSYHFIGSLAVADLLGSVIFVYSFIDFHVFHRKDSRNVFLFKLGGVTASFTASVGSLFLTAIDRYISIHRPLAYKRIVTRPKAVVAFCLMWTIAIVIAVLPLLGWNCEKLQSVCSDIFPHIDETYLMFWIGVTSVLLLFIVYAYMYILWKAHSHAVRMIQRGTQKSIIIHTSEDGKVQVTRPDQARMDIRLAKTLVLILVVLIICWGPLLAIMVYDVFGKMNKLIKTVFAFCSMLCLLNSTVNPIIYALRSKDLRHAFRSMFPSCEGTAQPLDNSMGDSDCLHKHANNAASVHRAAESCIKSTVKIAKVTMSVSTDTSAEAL
T1 sequence (P34972 whole entry): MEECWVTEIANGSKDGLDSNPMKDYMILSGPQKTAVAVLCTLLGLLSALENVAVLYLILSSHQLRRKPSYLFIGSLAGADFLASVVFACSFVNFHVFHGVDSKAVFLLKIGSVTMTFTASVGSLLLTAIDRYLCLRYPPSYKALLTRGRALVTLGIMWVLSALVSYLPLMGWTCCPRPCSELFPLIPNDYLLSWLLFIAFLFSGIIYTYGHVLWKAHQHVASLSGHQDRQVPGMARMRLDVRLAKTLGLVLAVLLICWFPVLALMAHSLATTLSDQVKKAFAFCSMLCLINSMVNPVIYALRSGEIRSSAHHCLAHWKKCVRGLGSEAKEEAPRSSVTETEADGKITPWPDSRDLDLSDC

In the case of `CCc1c(-c2nnc(Nc3ccccc3)o2)[nH]c2ccc(Cl)cc12` [ABM300, 5-(5-chloro-3-ethyl-1H-indol-2-yl)-N-phenyl-1,3,4-oxadiazol-2-amine], the pIC50 (CB1R; read-out: IC50, reduction in ERK1/2 phosphorylation) was 7.33, the IC50 (CB1R; read-out: pIC50, reduction in ERK1/2 phosphorylation (converted)) was 41.7 nM and the “binding to CB2” value (CB2) was “did not display any significant binding”. For the same compound, the “binding to 5HT1A” value (5HT1A) was “did not display any significant binding”, the “tetrad: catalepsy-induced immobility time” value (Male C57Bl/6J mice) was “no effect” and the “tetrad: percent inhibition of locomotor activity (15 min)” value (Male C57Bl/6J mice) was “no effect”. For the same compound, the “tetrad: rectal temperature” value (Male C57Bl/6J mice) was “no effect” and the “tetrad: tail withdrawal (% MPE)” value (Male C57Bl/6J mice) was “no effect”.
